Test [1] has as its target DGKζ (Homo sapiens (Human), UniProt Q13574). As to the kind of experiment: Biochemical DGK IC50 assay, DGKζ ADP-Glo assay. Conditions: 0.5 nM enzyme, 140 μM ATP, 80 μM DAG; read-out: DGKζ ADP-Glo assay IC50. In short, it runs like this:
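ADP formation measured by ADP-Glo luminescence, with test compounds at final 1.55–10000 nM or 23.3–150000 nM. Enzyme: purified full-length human DGKζ from Sf9 insect cells; substrate: DAG/PS micelles in 25 mM HEPES pH 7.0, 0.5 mM EDTA, octyl glucoside.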
In general terms: ADP-Glo first removes unused ATP, then detects ADP through luciferase.

In test [2] the target is DGKα (Homo sapiens (Human), UniProt P23743). Briefly: Biochemical DGK IC50 assay, DGKα ADP-Glo assay. The conditions noted are these: 7.5 nM enzyme, 140 μM ATP, 80 μM DAG. The gist of the method:
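Compounds at final 1.55˜10000 nM or 23.3˜150000 nM were tested against full-length DGKα. Substrate was lipid micelles of DAG and PS resuspended in 25 mM HEPES pH 7.0 with 0.5 mM EDTA and 160 mM octyl β-D-glucopyranoside. ADP formed was detected by ADP-Glo.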

pIC50: −log10 of the molar value.

The pIC50 is −log10 of the IC50, conventionally taken in molar units.

Sequence of DGKζ (Q13574 other isoform, or with tags, fused parts or gaps): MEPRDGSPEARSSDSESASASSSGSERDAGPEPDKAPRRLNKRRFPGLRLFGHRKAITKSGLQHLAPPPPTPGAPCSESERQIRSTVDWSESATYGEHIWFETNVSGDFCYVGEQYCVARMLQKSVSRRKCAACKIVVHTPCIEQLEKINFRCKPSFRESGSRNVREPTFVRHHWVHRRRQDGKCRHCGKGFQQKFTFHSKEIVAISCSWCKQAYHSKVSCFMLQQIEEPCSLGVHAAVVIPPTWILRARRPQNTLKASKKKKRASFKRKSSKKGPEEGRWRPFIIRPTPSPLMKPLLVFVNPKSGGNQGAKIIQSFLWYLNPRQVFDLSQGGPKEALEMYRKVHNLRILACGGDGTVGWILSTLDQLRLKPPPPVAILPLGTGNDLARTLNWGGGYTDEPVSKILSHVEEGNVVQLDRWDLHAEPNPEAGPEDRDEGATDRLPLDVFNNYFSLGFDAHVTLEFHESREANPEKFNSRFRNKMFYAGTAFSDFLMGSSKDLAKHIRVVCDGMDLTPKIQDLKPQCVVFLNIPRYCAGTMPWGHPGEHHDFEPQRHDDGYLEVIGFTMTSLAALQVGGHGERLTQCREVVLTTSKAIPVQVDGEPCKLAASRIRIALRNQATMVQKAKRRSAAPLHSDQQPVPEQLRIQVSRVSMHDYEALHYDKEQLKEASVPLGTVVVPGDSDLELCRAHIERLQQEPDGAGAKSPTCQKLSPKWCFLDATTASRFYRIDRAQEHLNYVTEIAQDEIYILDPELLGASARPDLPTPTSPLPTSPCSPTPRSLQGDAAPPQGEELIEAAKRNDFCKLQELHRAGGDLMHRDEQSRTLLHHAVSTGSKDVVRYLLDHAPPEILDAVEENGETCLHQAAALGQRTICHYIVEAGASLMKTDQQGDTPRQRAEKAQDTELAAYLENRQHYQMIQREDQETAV
Sequence of DGKα (P23743 whole entry): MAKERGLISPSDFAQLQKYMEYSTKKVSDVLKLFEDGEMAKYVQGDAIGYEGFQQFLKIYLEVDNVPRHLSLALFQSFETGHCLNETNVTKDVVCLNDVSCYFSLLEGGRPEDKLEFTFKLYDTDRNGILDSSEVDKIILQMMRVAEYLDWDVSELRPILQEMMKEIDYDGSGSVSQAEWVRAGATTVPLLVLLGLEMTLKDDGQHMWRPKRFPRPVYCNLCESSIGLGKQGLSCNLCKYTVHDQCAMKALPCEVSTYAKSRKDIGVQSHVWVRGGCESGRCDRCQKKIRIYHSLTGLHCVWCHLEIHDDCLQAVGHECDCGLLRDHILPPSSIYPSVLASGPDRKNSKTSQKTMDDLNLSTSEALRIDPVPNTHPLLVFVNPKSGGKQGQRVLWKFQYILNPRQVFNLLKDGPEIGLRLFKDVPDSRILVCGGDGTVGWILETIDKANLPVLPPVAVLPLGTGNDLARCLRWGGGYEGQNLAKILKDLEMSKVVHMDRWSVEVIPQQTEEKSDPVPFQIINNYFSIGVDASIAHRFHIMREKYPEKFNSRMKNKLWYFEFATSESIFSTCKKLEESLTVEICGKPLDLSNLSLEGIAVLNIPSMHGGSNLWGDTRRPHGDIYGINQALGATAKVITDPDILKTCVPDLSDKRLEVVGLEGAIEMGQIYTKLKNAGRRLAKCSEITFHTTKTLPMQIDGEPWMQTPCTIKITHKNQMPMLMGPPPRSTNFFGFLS

Turning to `C=CCCn1cc2c(n1)c(N1C[C@@H](C)N(C(C)c3ccc4nccnc4c3)C[C@@H]1C)cc(=O)n2C` (single isomer, unassigned) [Compound A300, 2-(but-3-en-1-yl)-7-((2S,5R)-2,5-dimethyl-4-((S)-1-(quinoxalin-6-yl)ethyl)piperazin-1-yl)-4-methyl-2,4-dihydro-5H-pyrazolo[4,3-b]pyridin-5-one, or 2-(but-3-en-1-yl)-7-((2S,5R)-2,5-dimethyl-4-((R)-1-(quinoxalin-6-yl)ethyl)piperazin-1-yl)-4-methyl-2,4-dihydro-5H-pyrazolo[4,3-b]pyridin-5-one], the pIC50 in test [1] is 6.28; in test [2] it was 4.27.

`CC(c1ccc2ncc(CO)nc2c1)N1C[C@H](C)N(c2cc(=O)n(C)c3cn(CC#N)nc23)C[C@H]1C` (single isomer, unassigned) [Compound A309a]: the figures for the pIC50 in test [1] and in test [2] were below 5.00 and 3.93, respectively.

As for `CC(c1ccc2ncc(CO)nc2c1)N1C[C@H](C)N(c2cc(=O)n(C)c3cn(CC#N)nc23)C[C@H]1C` (single isomer, unassigned) [Compound A309b], the pIC50 was 6.43 in test [1] and 4.06 in test [2].

For `[2H]C([2H])([2H])c1cnc2ccc(C(C)N3C[C@H](C)N(c4cc(=O)n(C)c5cn(CC#N)nc45)C[C@H]3C)cc2n1` (single isomer, unassigned) [Compound A313a], the pIC50 is 5.08 in test [1] and 3.94 in test [2].

As for `[2H]C([2H])([2H])c1cnc2ccc(C(C)N3C[C@H](C)N(c4cc(=O)n(C)c5cn(CC#N)nc45)C[C@H]3C)cc2n1` (single isomer, unassigned) [Compound A313b], the values for the pIC50 in test [1] and in test [2] were 7.29 and 4.21, respectively.

Turning to `CC#CCn1cc2c(n1)c(N1C[C@@H](CC)N(C(C)c3ccc(C(F)(F)F)cc3F)C[C@@H]1CC)cc(=O)n2C` (single isomer, unassigned) [Compound A334a], the values for the pIC50 in test [1] and in test [2] were 6.01 and 6.51, respectively.

Take `CC#CCn1cc2c(n1)c(N1C[C@@H](CC)N(C(C)c3ccc(C(F)(F)F)cc3F)C[C@@H]1CC)cc(=O)n2C` (single isomer, unassigned) [Compound A334b]: the figures for the pIC50 in test [1] and in test [2] were below 5.00 and 6.05, respectively.

For the compound `CC[C@H]1CN(C(C)c2ccc(C(F)F)cn2)[C@H](CC)CN1c1cc(=O)n(C)c2cn(CC#N)nc12` (single isomer, unassigned) [Compound A347a], the pIC50 is 5.32 in test [1] and 6.76 in test [2].

As for `CC[C@H]1CN(C(C)c2ccc(C(F)F)cn2)[C@H](CC)CN1c1cc(=O)n(C)c2cn(CC#N)nc12` (single isomer, unassigned) [Compound A347b], the pIC50 is 6.65 in test [1] and 8.10 in test [2].

As to `CC[C@H]1CN(C(C)c2ccc(C(F)(F)F)cn2)[C@H](CC)CN1c1cc(=O)n(C)c2cn(CC#N)nc12` (single isomer, unassigned) [Compound A348a], the pIC50 was 5.41 in test [1] and 6.75 in test [2].

As to `CC[C@H]1CN(C(C)c2ccc(C(F)(F)F)cn2)[C@H](CC)CN1c1cc(=O)n(C)c2cn(CC#N)nc12` (single isomer, unassigned) [Compound A348b], the values for the pIC50 in test [1] and in test [2] were 6.86 and 8.05, respectively.

For `CC[C@H]1CN(C(C)c2ccc(C)nc2)[C@H](CC)CN1c1cc(=O)n(C)c2cn(CC#N)nc12` (single isomer, unassigned) [Compound A349a], the pIC50 was 6.34 in test [1] and 6.31 in test [2].

On to `CC[C@H]1CN(C(C)c2ccc(C)nc2)[C@H](CC)CN1c1cc(=O)n(C)c2cn(CC#N)nc12` (single isomer, unassigned) [Compound A349b], for which the pIC50 is 5.37 in test [1] and 5.80 in test [2].

In the case of `CC[C@H]1CN(C(C)c2ccc(C(F)F)nc2)[C@H](CC)CN1c1cc(=O)n(C)c2cn(CC#N)nc12` (single isomer, unassigned) [Compound A351a], the pIC50 was 6.78 in test [1] and 6.56 in test [2].

For the origin of these results see patent US20240270751A1, “Pyrazolopyridinone Compounds” (BeiGene Ltd., priority 2021, published 2024).
